Test results as given in patent US11427567B2, “Imidazolyl pyrimidinylamine compounds as CDK2 inhibitors” (Incyte Corporation, priority 2019, dated 2022).

Each compound was assayed against CDK2/Cyclin E1 (Homo sapiens (Human), UniProt P24941) (assay: CDK2/Cyclin E1 HTRF enzyme activity assay (Example A)). Settings: 1 mM ATP.
Type: biochemical
Experimental: Assays were conducted in white 384-well polystyrene plates in a final reaction volume of 8 μL. […] HTRF signals were read after 1 hour at room temperature on a PHERAstar FS plate reader (BMG Labtech). Data was analyzed with IDBS XLFit and GraphPad Prism 5.0 software using a three or four parameter dose response curve to determine IC50 for each compound.

IC50, ≤ 0.05 µM:
CS(=O)(=O)N1CCC(Nc2ncc(C(F)(F)F)c(-c3cn(-c4ccc(CN5CCCCC5)cc4C#N)cn3)n2)CC1 [Example 345, 2-(4-(2-((1-(Methylsulfonyl)piperidin-4-yl)amino)-5-(trifluoromethyl)pyrimidin-4-yl)-1H-imidazol-1-yl)-5-(piperidin-1-ylmethyl)benzonitrile]
CCC(O)c1cccc(-n2cnc(-c3nc(NC4CCN(S(C)(=O)=O)CC4)ncc3C(F)(F)F)c2)c1Cl (centres unmarked) [Example 85, 1-(2-Chloro-3-(4-(2-((1-(methylsulfonyl)piperidin-4-yl)amino)-5-(trifluoromethyl)pyrimidin-4-yl)-1H-imidazol-1-yl)phenyl)propan-1-ol]
C[C@]1(O)CCN(Cc2ccc(-n3cnc(-c4nc(N[C@H]5CCN(S(C)(=O)=O)C[C@H]5F)ncc4C(F)(F)F)c3)c(Cl)c2)C1 [Example 412, (S)-1-(3-Chloro-4-(4-(2-(((3R,4S)-3-fluoro-1-(methylsulfonyl)piperidin-4-yl)amino)-5-(trifluoromethyl)pyrimidin-4-yl)-1H-imidazol-1-yl)benzyl)-3-methylpyrrolidin-3-ol]
C[C@@H]1CN(S(=O)(=O)C2CC2)CC[C@@H]1Nc1ncc(C(F)(F)F)c(-c2cn(-c3ccc(CNC4CC4)cc3Cl)cn2)n1 [Example 221, 4-(1-(2-Chloro-4-((cyclopropylamino)-methyl)phenyl)-1H-imidazol-4-yl)-N-((3R,4S)-1-(cyclo-propylsulfonyl)-3-methylpiperidin-4-yl)-5-(trifluoro-methyl)pyrimidin-2-amine]
Cn1ccc(S(=O)(=O)N2CC[C@@H](Nc3ncc(C(F)(F)F)c(-c4cn(CC(C)(C)O)cn4)n3)[C@H](F)C2)n1 [Example 335, 1-(4-(2-(((3R,4R)-3-Fluoro-1-((1-methyl-1H-pyrazol-3-yl)sulfonyl)piperidin-4-yl)amino)-5-(trifluoromethyl)pyrimidin-4-yl)-1H-imidazol-1-yl)-2-methylpropan-2-ol]
CC1(F)CN(Cc2ccc(-n3cnc(-c4nc(NC5CCN(S(C)(=O)=O)CC5)ncc4C(F)(F)F)c3)c(Cl)c2)C1 [Example 196, 4-(1-(2-Chloro-4-((3-fluoro-3-methyl-azetidin-1-yl)methyl)-phenyl)-1H-imidazol-4-yl)-N-(1-(methyl-sulfonyl)piperidin-4-yl)-5-(trifluoromethyl)-pyrimidin-2-amine]
CC(=O)N(C)Cc1ccc(-n2cnc(-c3nc(NC4CCN(S(C)(=O)=O)CC4)ncc3C(F)(F)F)c2)c(Cl)c1 [Example 174, N-(3-Chloro-4-(4-(2-((1-(methylsulfonyl)piperidin-4-yl)amino)-5-(trifluoromethyl)pyrimidin-4-yl)-1H-imidazol-1-yl)benzyl)-N-methylacetamide]
CCS(=O)(=O)N1CCC(Nc2ncc(C(F)(F)F)c(-c3cn(-c4ccc(C)nc4C#N)cn3)n2)CC1 [Example 87, 3-(4-(2-((1-(Ethylsulfonyl)piperidin-4-yl)amino)-5-(trifluoromethyl)pyrimidin-4-yl)-1H-imidazol-1-yl)-6-methylpicolinonitrile]
CS(=O)(=O)N1CCC(Nc2ncc(C(F)(F)F)c(-c3cn(-c4ccc(CN5CCC5=O)cc4Cl)cn3)n2)CC1 [Example 452, 1-(3-Chloro-4-(4-(2-((1-(methylsulfonyl)piperidin-4-yl)amino)-5-(trifluoromethyl)pyrimidin-4-yl)-1H-imidazol-1-yl)benzyl)azetidin-2-one]
C[C@@]1(O)CCN(Cc2ccc(-n3cnc(-c4nc(NC5CCN(S(C)(=O)=O)CC5)ncc4C(F)(F)F)c3)c(Cl)c2)C1 [Example 181, (R)-1-(3-Chloro-4-(4-(2-((1-(methylsulfonyl)piperidin-4-yl)amino)-5-(trifluoromethyl)pyrimidin-4-yl)-1H-imidazol-1-yl)benzyl)-3-methylpyrrolidin-3-ol]
Cc1nc(-c2nc(N[C@H]3CCN(S(C)(=O)=O)C[C@H]3F)ncc2C(F)(F)F)cn1-c1ccc(CNC(C)C)cc1F [Example 388, N-((3R,4S)-3-Fluoro-1-(methylsulfonyl)piperidin-4-yl)-4-(1-(2-fluoro-4-((isoporopylamino)methyl)phenyl)-2-methyl-1H-imidazol-4-yl)-5-(trifluoromethyl)pyrimidin-2-amine]
Cc1ccc(-n2cnc(-c3nc(NC4CCN(S(C)(=O)=O)CC4)ncc3C(F)(F)F)c2)c(C#N)n1 [Example 36, 6-Methyl-3-(4-(2-((1-(methylsulfonyl)piperidin-4-yl)amino)-5-(trifluoromethyl)pyrimidin-4-yl)-1H-imidazol-1-yl)picolinonitrile]
CCS(=O)(=O)N1CCC(Nc2ncc(C(F)(F)F)c(-c3cn(-c4ccc(C#N)nc4C)cn3)n2)CC1 [Example 93, 5-(4-(2-((1-(Ethylsulfonyl)piperidin-4-yl)amino)-5-(trifluoromethyl)pyrimidin-4-yl)-1H-imidazol-1-yl)-6-methylpicolinonitrile]
CNCc1ccc(-n2cnc(-c3nc(NC4CCN(S(C)(=O)=O)CC4)ncc3C(F)(F)F)c2)c(C(F)(F)F)c1 [Example 254, 4-(1-(4-((Methylamino)methyl)-2-(trifluoromethyl)phenyl)-1H-imidazol-4-yl)-N-(1-(methylsulfonyl)piperidin-4-yl)-5-(trifluoromethyl)pyrimidin-2-amine]
CCN1CCN(Cc2ccc(-n3cnc(-c4nc(N[C@@H]5CCN(S(C)(=O)=O)C[C@H]5F)ncc4C(F)(F)F)c3)c(Cl)c2)CC1 [Example 398, 4-(1-(2-Chloro-4-((4-ethylpiperazin-1-yl)methyl)phenyl)-1H-imidazol-4-yl)-N-((3R,4R)-3-fluoro-1-(methylsulfonyl)piperidin-4-yl)-5-(trifluoromethyl)pyrimidin-2-amine]
COc1nccc(-n2cnc(-c3nc(NC4CCN(S(C)(=O)=O)CC4)ncc3C(F)(F)F)c2)c1C#N [Example 291, 2-Methoxy-4-(4-(2-((1-(methylsulfonyl)piperidin-4-yl)amino)-5-(trifluoromethyl)pyrimidin-4-yl)-1H-imidazol-1-yl)nicotinonitrile]
CS(=O)(=O)N1CCC(Nc2ncc(C(F)(F)F)c(-c3cn(-c4c(Cl)cccc4C#N)cn3)n2)CC1 [Example 2, 3-Chloro-2-(4-(2-((1-(methylsulfonyl)piperidin-4-yl)amino)-5-(trifluoromethyl)pyrimidin-4-yl)-1H-imidazol-1-yl)benzonitrile]
Cc1ccc(-n2cnc(-c3nc(NC4CCN(S(C)(=O)=O)CC4)ncc3C(F)(F)F)c2)c(C(F)(F)F)n1 [Example 44, 4-(1-(6-Methyl-2-(trifluoromethyl)pyridin-3-yl)-1H-imidazol-4-yl)-N-(1-(methylsulfonyl)piperidin-4-yl)-5-(trifluoromethyl)pyrimidin-2-amine]
CNCc1ccc(-n2cnc(-c3nc(N[C@@H]4CCN(S(C)(=O)=O)C[C@H]4F)ncc3C(F)(F)F)c2)c(Cl)c1 [Example 225, 4-(1-(2-Chloro-4-((methylamino)-methyl)phenyl)-1H-imidazol-4-yl)-N-((3R,4R)-3-fluoro-1-(methylsulfonyl)-piperidin-4-yl)-5-(trifluoromethyl)-pyrimidin-2-amine]
CS(=O)(=O)N1CCC(Nc2ncc(C(F)(F)F)c(-c3cn(-c4cccc(F)c4Cl)cn3)n2)CC1 [Example 65, 4-(1-(2-Chloro-3-fluorophenyl)-1H-imidazol-4-yl)-N-(1-(methylsulfonyl)piperidin-4-yl)-5-(trifluoromethyl)pyrimidin-2-amine]
CS(=O)(=O)N1CCC(Nc2ncc(C(F)(F)F)c(-c3cn(-c4ccc(C#N)cc4CO)cn3)n2)CC1 [Example 235, 3-(Hydroxymethyl)-4-(4-(2-((1-(methylsulfonyl)piperidin-4-yl)amino)-5-(trifluoromethyl)pyrimidin-4-yl)-1H-imidazol-1-yl)benzonitrile]
Cn1cnc(-c2nc(NC3CCN(S(C)(=O)=O)CC3)ncc2C(F)(F)F)c1Br [Example 13, 4-(5-Bromo-1-methyl-1H-imidazol-4-yl)-N-(1-(methylsulfonyl)piperidin-4-yl)-5-(trifluoromethyl)pyrimidin-2-amine]
CNCc1ccc(-n2cnc(-c3nc(N[C@H]4CCN(S(=O)(=O)C5CC5)C[C@H]4C)ncc3C(F)(F)F)c2)c(Cl)c1 [Example 223, 4-(1-(2-Chloro-4-((methylamino)-methyl)phenyl)-1H-imidazol-4-yl)-N-((3R,4S)-1-(cyclo-propylsulfonyl)-3-methylpiperidin-4-yl)-5-(trifluoro-methyl)pyrimidin-2-amine]
Cc1nc(-c2nc(NC3CCN(S(C)(=O)=O)CC3)ncc2C(F)(F)F)cn1-c1ccc(N2CCC(C)(N3CCCC3)CC2)cc1F [Example 414, 4-(1-(2-Fluoro-4-(4-methyl-4-(pyrrolidin-1-yl)piperidin-1-yl)phenyl)-2-methyl-1H-imidazol-4-yl)-N-(1-(methylsulfonyl)piperidin-4-yl)-5-(trifluoromethyl)pyrimidin-2-amine]
CS(=O)(=O)N1CCC(Nc2ncc(C(F)(F)F)c(-c3cn(-c4ccc5nccnc5c4C#N)cn3)n2)CC1 [Example 167, 6-(4-(2-((1-(Methylsulfonyl)piperidin-4-yl)amino)-5-(trifluoromethyl)pyrimidin-4-yl)-1H-imidazol-1-yl)quinoxaline-5-carbonitrile]
CS(=O)(=O)N1CCC(Nc2ncc(C(F)(F)F)c(-c3cn(-c4ccc5cccnc5c4Br)cn3)n2)CC1 [Example 163, 4-(1-(8-Bromoquinolin-7-yl)-1H-imidazol-4-yl)-N-(1-(methyl-sulfonyl)piperidin-4-yl)-5-(trifluoromethyl)-pyrimidin-2-amine]
